Reference: patent US8476035B2, “Agent that modulates physiological condition of pests, involved in insect choline acetyltransferase activity” (Sumitomo Chemical Company, Limited, priority 2007, dated 2013)
Read-outs that look alike come from different tables or passages of the source.

Legend:
[1] = target: cotton aphid choline acetyltransferase (Aphis gossypii, UniProt A0A9P0JF82); assay: Inhibition of cotton aphid choline acetyltransferase activity (DTNB colorimetric in vitro assay); format: biochemical; settings: for inhibition at 10 µM: test compound in DMSO at final concentration 10 μM, relative to DMSO control, read-out: Activity of inhibiting choline acetyltransferase activity (inhibition degree (%) at 10 μM addition)
Description: Selection of a compound which modulates a choline acetyltransferase activity was performed in a system for measuring and evaluating the choline acetyltransferase activity, the activity being modulated by adding a test compound to an in vitro reaction system using the cotton aphid choline acetyltransferase prepared in Example 7.
As for a measurement of the cotton aphid choline acetyltransferase activity, after the enzymatic reaction of choline acetyltransferase using acetyl-CoA and choline as substrates, free CoA formed by choline acetyltransferase reaction was measured using 5,5′-dithio-bis(2-nitrobenzoic acid) (DTNB) reagent. DTNB reacts with free thiol groups in solution to produce 5-thio-2-nitrobenzoic acid (TNB). TNB is yellow and has absorption maximum at 412 nm. The produced TNB was measured […] to calculate choline acetyltransferase activity.
For measuring the activity, the activity of the aphid choline acetyltransferase was measured when a test compound dissolved in DMSO was contained to a final concentration of 10 μM. In addition, the activity of the aphid choline acetyltransferase was measured when DMSO was contained in place of a test compound. Then, a ratio (%) of a measured value of the activity of the aphid choline acetyltransferase when a test compound dissolved in DMSO was contained, relative to a measured value of the activity of aphid choline acetyltransferase when DMSO was contained in place of the test compound was calculated, and a value obtained by subtracting the calculated value from 100% was adopted as an inhibition degree (%). The results in each test compound are shown in Table 4 in Example 9 together with results of Example 9.
The activity of aphid choline acetyltransferase was measured when a test compound dissolved in DMSO was contained to a final concentration of each concentration of 100 μM, 30 μM, 10 μM, 3 μM, 1 μM, 0.3 μM, 0.1 μM or 0.03 μM. IC50 (μM) was calculated from the result of each concentration at each test compound using a concentration-dependent test analyzing software XL fit (manufactured by idbs). The results are shown in Table 5 in Example 10 together with results of Example 9.

Aphis gossypii = assay: Pesticidal activity test (artificial feed rearing of Aphis gossypii); format: in vivo; settings: 50 ppm test compound in artificial feed; surviving Aphis gossypii counted after six days; significant controlling value (e.g. 30% or more) = pesticidal activity
[2] = concentrations 0.03-100 μM, XLfit, recombinant cotton aphid enzyme, read-out: Activity of inhibiting choline acetyltransferase activity (IC50)
[3] = recombinant cotton aphid enzyme

Chain of cotton aphid choline acetyltransferase (A0A9P0JF82 entry or part of it): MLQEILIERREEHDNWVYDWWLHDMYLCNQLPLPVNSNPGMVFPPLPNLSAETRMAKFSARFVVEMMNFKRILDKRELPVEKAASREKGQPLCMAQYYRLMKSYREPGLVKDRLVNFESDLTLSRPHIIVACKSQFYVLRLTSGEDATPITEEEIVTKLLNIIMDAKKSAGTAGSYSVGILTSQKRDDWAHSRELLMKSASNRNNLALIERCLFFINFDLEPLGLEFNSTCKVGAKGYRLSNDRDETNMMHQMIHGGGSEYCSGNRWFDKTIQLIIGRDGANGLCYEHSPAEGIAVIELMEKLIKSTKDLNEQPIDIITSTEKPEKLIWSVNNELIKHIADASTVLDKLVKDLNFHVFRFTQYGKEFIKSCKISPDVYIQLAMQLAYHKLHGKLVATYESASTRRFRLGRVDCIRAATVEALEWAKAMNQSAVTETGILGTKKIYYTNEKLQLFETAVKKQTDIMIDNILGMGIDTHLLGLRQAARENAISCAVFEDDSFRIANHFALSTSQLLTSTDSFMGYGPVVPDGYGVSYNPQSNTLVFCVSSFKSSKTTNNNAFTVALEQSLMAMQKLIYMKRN

Row | SMILES | IC50 [1, 2] | Result of Example 9: Determination result of pesticidal activity (Aphis gossypii) | inhibition at 10 µM [1, 3] | IC50 [1]
1 | CN(C)CCC(c1ccc(Cl)cc1)c1ccccn1.O=C(O)/C=C\C(=O)O (racemic) [DL-Chlorpheniramine Maleate] | > 100 µM |  |  | 
2 | COc1cc(N)c(Cl)cc1C(=O)NC1CCN(CCCOc2ccc(F)cc2)CC1OC (stereo not drawn) [Cisapride] | > 100 µM |  |  | 
3 | ICC1CSc2nncn21 (stereo not drawn) [DD03493] | 23.8 µM | Presence of pesticidal | 49% | 
4 | O/N=C(\CBr)c1ccccc1 [DD05314] |  | Presence of pesticidal | 50% | 
5 | CN(C)CCC(=O)c1cccc2ccccc12.Cl [α-NEDA, 2-(α-naphthoyl)ethyl-dimethylammonium chloride] |  |  |  | 33.5 µM
6 | C[N+](C)(C)CCC(=O)c1cccc2ccccc12.[I-] [α-NETA, 2-(α-naphthoyl)ethyl-trimethylammonium iodide] |  |  |  | 1.5 µM
